Source: patent publication US6528504B2, “Oxazepine derivatives and medicine containing the same” (Ajinomoto Co., Inc., priority 1999, dated 2003)
Counter-ions that a name gives are not always drawn.

What was measured:
calcium channel (ileum) = calcium channel (ileum) (Rattus norvegicus, UniProt P22002); test: In vitro calcium channel antagonistic effect (ileum): inhibition of high potassium contraction of ileum samples; settings: high potassium (45.0 mM KCl) contraction, 10^−7 M test compound, 30 minute pretreatment, read-out: Inhibition rate (%) (conc.: 10^−7M)
Sequence of calcium channel (ileum) (P22002 whole entry): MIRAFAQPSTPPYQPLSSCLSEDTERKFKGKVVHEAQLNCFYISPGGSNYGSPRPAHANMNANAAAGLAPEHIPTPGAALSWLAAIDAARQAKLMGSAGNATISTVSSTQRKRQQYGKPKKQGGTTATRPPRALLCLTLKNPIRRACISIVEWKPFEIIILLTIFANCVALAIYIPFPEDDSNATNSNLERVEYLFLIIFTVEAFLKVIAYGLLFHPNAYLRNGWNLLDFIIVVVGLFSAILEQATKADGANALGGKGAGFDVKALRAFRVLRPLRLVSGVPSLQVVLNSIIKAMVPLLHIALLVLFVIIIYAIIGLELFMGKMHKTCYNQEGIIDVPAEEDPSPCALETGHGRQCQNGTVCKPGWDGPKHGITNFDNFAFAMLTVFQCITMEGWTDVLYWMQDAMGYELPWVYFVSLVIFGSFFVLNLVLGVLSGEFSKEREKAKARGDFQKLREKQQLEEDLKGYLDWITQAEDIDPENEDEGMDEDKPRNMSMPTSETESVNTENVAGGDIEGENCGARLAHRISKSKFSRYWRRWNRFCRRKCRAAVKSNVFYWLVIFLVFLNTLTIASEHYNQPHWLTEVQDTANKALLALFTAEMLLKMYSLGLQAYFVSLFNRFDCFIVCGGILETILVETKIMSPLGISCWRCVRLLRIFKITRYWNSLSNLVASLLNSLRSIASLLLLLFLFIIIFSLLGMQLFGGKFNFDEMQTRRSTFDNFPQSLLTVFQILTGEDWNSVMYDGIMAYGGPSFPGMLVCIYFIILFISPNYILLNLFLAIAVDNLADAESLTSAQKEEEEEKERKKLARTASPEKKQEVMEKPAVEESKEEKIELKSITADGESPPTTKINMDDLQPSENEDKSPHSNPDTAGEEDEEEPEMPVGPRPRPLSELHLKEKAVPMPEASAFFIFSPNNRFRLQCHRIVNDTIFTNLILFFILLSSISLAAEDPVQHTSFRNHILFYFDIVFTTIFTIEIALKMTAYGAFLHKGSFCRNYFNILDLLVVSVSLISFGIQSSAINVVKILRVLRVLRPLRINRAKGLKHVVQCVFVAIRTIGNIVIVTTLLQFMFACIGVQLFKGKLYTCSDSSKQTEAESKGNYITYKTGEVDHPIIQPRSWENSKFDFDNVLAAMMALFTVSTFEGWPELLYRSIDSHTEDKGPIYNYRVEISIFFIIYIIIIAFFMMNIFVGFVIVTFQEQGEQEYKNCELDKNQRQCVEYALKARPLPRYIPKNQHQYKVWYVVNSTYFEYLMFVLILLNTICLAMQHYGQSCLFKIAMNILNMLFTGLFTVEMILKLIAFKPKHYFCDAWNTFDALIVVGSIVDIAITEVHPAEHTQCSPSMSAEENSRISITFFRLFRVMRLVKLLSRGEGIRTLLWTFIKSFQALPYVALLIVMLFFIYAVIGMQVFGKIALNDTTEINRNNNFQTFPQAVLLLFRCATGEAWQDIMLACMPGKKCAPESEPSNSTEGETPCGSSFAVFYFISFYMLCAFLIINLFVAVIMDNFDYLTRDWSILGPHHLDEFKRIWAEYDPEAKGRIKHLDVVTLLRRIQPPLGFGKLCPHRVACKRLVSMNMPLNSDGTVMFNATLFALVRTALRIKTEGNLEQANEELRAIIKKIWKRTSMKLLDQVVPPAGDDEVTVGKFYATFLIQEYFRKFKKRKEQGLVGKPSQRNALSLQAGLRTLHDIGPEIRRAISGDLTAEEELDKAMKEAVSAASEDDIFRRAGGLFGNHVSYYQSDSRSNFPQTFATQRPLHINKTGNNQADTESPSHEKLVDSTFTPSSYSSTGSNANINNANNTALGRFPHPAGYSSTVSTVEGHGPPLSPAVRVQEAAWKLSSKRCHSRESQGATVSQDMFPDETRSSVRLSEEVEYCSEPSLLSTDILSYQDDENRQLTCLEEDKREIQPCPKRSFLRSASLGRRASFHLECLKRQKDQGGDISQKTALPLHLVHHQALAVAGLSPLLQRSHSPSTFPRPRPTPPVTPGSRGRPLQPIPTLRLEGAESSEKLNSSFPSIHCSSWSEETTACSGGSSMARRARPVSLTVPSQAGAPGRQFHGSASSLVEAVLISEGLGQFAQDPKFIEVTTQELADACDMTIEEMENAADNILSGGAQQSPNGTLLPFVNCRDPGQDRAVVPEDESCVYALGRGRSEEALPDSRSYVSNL
Protocol: In vitro calcium channel antagonistic effect (ileum)
(§1) The ileum of each of male Crj:CD rats (8 to 12 weeks old) was extracted at a part 3 cm apart from the ileocecal region. The ileum sample was suspended in 37° C. Tyrode's solution through which a gaseous mixture (95% of oxygen and 5% of carbon dioxide) was passed. For examining the change in tensile strength of the ileum, the isotonicity thereof was recorded on a pen-writing recorder through a transducer. The high potassium contraction was caused by exchanging the nutrient solution from Tyrode's solution to potassium-Tyrode's solution (94.6 mM of NaCl, 45.0 mM of KCl, 1.8 mM of CaCl2, 1.04 mM of MgCl2, 0.4 mM of NaH2PO4, 11.9 mM of NaHCO3 and 5.55 mM of glucose). The high potassium contraction-inhibiting effect of a test compound was evaluated by 30 minute pretreatment. Compound A described in European Patent No. 0404359A1 and compound B described in International Patent No. 9733885A1 were used as comparative substances. The calcium channel antagonistic activity was shown as the rate (%) of inhibition of control of high-calcium contraction with 10^−7 M test compound.

[1] = biological target: calcium channel (blood vessel, thoracic aorta) (Rattus norvegicus, UniProt P22002); test: In vitro calcium channel antagonistic effect (blood vessel): inhibition of high potassium contraction of helical thoracic aorta samples; settings: high potassium (45.0 mM KCl) contraction, 10^−7 M test compound, 30 minute pretreatment, read-out: Inhibition rate (%) (conc: 10^−7 M)
Sequence of calcium channel (blood vessel, thoracic aorta) (P22002 whole entry): as above
Protocol: In vitro calcium channel antagonistic effect (blood vessel)
as §1, with “thoracic aorta was extracted from” for “ileum of”, “to prepare helical samples.” for “was extracted at a part 3 cm apart from the ileocecal region.”, “blood vessel samples were” for “ileum sample was”, “blood vessel,” for “ileum,”, “isometry” for “isotonicity”

Row | SMILES | inhibition at 0.1 µM (calcium channel (ileum)) [%] | inhibition at 0.1 µM [1] [%] | melting point [°C]
1 | c1ccc2c(c1)COc1ccccc1N2[C@@H]1CCN(CCc2ccc3c(c2)OCO3)C1 [Example 12, (R)-5,11-Dihydro-5-[1-(3,4-methylenedioxyphenethyl)pyrrolidine-3-yl]dibenzo[b,e][1,4]oxazepine Hydrochloride] | 77 | 51 | –
2 | COc1ccc(CCN(C)CCN2c3ccccc3COc3ccccc32)cc1.Cl [Example 14, 5,11-Dihydro-5-[2-[N-(4-methoxyphenethyl)-N-methylamino]ethyl]dibenzo[b,e][1,4]oxazepine Hydrochloride] | 105 | 43 | 139 to 140
3 | COc1ccc(CCCN2CCCC[C@@H]2CN2c3ccccc3COc3ccccc32)cc1 [Example 4, (R)-5,11-Dihydro-5-[1-[3-(4-methoxyphenyl)propyl]piperidine-2-ylmethyl]dibenzo[b,e][1,4]oxazepine Hydrochloride] | 64 | 32 | –
4 | CN(CCc1ccc(N(C)C)cc1)CCN1c2ccccc2COc2ccccc21 [Example 19, 5,11-Dihydro-5-[2-[N-(4-dimethylaminophenethyl)-N-methylamino]ethyl]dibenzo[b,e][1,4]oxazepine Dihydrochloride] | 76 | 39 | –
5 | CN(C)c1ccc(CCN2CCCC[C@@H]2CN2c3ccccc3COc3ccccc32)cc1 [Example 7, (R)-5,11-Dihydro-5-[1-(4-dimethylaminophenethyl)piperidine-2-ylmethyl]dibenzo[b,e][1,4]oxazepine Dihydrochloride] | 78 | 23 | –
6 | COc1ccc(CCN2CCCC[C@@H]2CN2c3ccccc3COc3ccccc32)cc1.Cl [Example 1, (R)-5,11-Dihydro-5-[1-(4-methoxyphenethyl)piperidine-2-ylmethyl]dibenzo[b,e][1,4]oxazepine Hydrochloride] | 90 | 38 | 199 to 201
7 | COc1ccc(CCCN2CC[C@@H](N3c4ccccc4COc4ccccc43)C2)cc1 [Example 11, (R)-5,11-Dihydro-5-[1-[3-(4-methoxyphenyl)propyl]pyrrolidine-3-yl]dibenzo[b,e][1,4]oxazepine Hydrochloride] | 83 | 61 | –
8 | COc1ccc(CCN2CCC[C@@H]2CN2c3ccccc3COc3ccccc32)cc1 [Compound B, reference compound] | 67 | 17 | –
9 | COc1ccc(CCCN(C)CCN2c3ccccc3COc3ccccc32)cc1 [Example 16, 5,11-Dihydro-5-[2-[N -[3-(4-methoxyphenyl)propyl]-N-methylamino]ethyl]dibenzo[b,e][1,4]oxazepine Hydrochloride] | 82 | 28 | –
10 | CN(CCc1ccc2c(c1)OCO2)CCN1c2ccccc2COc2ccccc21 [Example 17, 5,11-Dihydro-5-[2-[N-methyl-N-(3,4-methylenedioxyphenethyl)amino]ethyl]dibenzo[b,e][1,4]oxazepine Hydrochloride] | 78 | 30 | –
11 | c1ccc2c(c1)COc1ccccc1N2C[C@H]1CCCCN1CCc1ccc2c(c1)OCO2 [Example 5, (R)-5,11-Dihydro-5-[1-(3,4-methylenedioxyphenethyl)piperidine-2-yl-methyl] dibenzo[b,e][1,4]oxazepine Hydrochloride] | 66 | 27 | –
12 | Clc1ccc(CCN2CC[C@@H](N3c4ccccc4COc4ccccc43)C2)cc1 [Example 13, (R)-5-[1-(4-chlorophenethyl)pyrrolidine-3-yl]-5,11-dihydrodibenzo[b,e][1,4] oxazepine Hydrochloride] | 76 | 38 | –
13 | CN(CCc1cccc(N(C)C)c1)CCN1c2ccccc2COc2ccccc21 [Example 20, 5,11-Dihydro-5-[2-[N-(3-dimethylaminophenethyl)-N-methylamino]ethyl]dibenzo[b,e][1,4]oxazepine Dihydrochloride] | 50 | 28 | –
14 | COc1ccc(CCN2CCCC2CN2c3ccccc3CSc3ccccc32)cc1 (centres unmarked) [Compound A, reference compound] | 48 | 9 | –
15 | CN(C)c1ccc(CCN2CC[C@@H](N3c4ccccc4COc4ccccc43)C2)cc1.Cl [Example 10, (R)-5,11-Dihydro-5-[1-(4-dimethylaminophenethyl)pyrrolidine-3-yl]dibenzo[b,e][1,4]oxazepine Hydrochloride] | 116 | 59 | 219 to 220
16 | COc1cccc(CCN(C)CCN2c3ccccc3COc3ccccc32)c1 [Example 15, 5,11-Dihydro-5-[2-[N-(3-methoxyphenethyl)-N-methylamino]ethyl]dibenzo[b,e][1,4]oxazepine Hydrochloride] | 82 | 29 | –
17 | COc1ccc(CCN2CC[C@@H](N3c4ccccc4COc4ccccc43)C2)cc1.Cl [Example 8, (R)-5,11-Dihydro-5-[1-(4-methoxyphenethyl)pyrrolidine-3-yl] dibenzo[b,e][1,4]oxazepine Hydrochloride] | 100 | 52 | 224 to 226
18 | CN(CCc1ccc(Cl)cc1)CCN1c2ccccc2COc2ccccc21 [Example 18, 5-[2-[N-(4-chlorophenethyl)-N-methylamino]ethyl]-5,11-dihydrodibenzo [b,e][1,4]oxazepine Hydrochloride] | 70 | 34 | –
19 | COc1cccc(CCN2CCCC[C@@H]2CN2c3ccccc3COc3ccccc32)c1 [Example 3, (R)-5,11-Dihydro-5-[1-(3-methoxyphenethyl)piperidine-2-ylmethyl] dibenzo[b,e][1,4]oxazepine Hydrochloride] | 61 | 33 | –
20 | Clc1ccc(CCN2CCCC[C@@H]2CN2c3ccccc3COc3ccccc32)cc1 [Example 6, (R)-5-[1-(4-chlorophenethyl)piperidine-2-ylmethyl]-5,11-dihydrodibenzo [b,e][1,4]oxazepine Hydrochloride] | 75 | 25 | –
